{"source": "patent US20260021061A1", "about": "“ARIADNE AND ANALOGS FOR THE TREATMENT OF NEUROLOGICAL AND NEUROMUSCLAR DISORDERS” (priority 2022, published 2026)", "key": {"5-HT2B [1]": {"target": "T1, 5-HT2B (Homo sapiens, UniProt P41595)", "T1 sequence (P41595 whole entry)": "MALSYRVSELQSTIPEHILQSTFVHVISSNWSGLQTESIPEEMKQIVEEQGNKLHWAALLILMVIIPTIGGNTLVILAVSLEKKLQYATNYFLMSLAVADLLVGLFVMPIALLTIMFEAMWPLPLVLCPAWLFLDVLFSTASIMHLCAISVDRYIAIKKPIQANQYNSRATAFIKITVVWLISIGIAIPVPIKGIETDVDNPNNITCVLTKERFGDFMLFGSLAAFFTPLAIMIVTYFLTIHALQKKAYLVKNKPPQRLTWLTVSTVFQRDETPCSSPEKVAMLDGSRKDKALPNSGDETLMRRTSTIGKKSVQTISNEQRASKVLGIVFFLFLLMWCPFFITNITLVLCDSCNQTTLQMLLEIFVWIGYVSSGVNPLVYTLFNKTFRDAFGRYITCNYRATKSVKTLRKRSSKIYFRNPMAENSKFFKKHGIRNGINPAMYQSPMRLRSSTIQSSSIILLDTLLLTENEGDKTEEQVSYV", "assay": "G protein (Gq) dissociation BRET assay", "method": "(§3) All BRET assays were conducted using BRET2 in HEK293T cells (ATCC CRL-11268; mycoplasma-free), which were subcultured in high-glucose DMEM (VWR) supplemented with 10% FBS (Life Technologies).\n(§4) Constructs in G protein-dissociation BRET assays were derived from the codon-optimized Tango pcDNA3.1 library (Addgene) with V2tail/TEV/tTA encoding regions deleted to yield “de-Tango” constructs. […] All Gα-Rluc8, Beta, and GFP2-γ constructs were derived from the TRUPATH pcDNA5/FRT/TO library (Addgene).\n(§5) Approximately 48 hours before assays, cells were transfected using a reverse transfection method and plated in 1% dFBS at an approximate density of 15,000 cells per well into poly-L-lysine-coated 384-well white assay plates (Grenier Bio-One). For G protein-dissociation assays, cells were transfected in a 1:1:1:1 ratio of receptor: Gα-Rluc8: Beta: GFP2-γ constructs. […] All transfections were prepared in Opti-MEM (Invitrogen) and used a 3:1 ratio of TransIT-2020 (Mirus) uL:ug total DNA.\nOn the day of the assay, plates were decanted and 20 uL of drug buffer per well (1×HBSS, 20 mM HEPES, pH 7.4) was added using a Multidrop (ThermoFisher Scientific), and plates were allowed to equilibrate at 37° C. in a humidified incubator before receiving drug stimulation. Drug dilutions of all compounds were performed in McCorvy buffer (1×HBSS, 20 mM HEPES, pH 7.4, supplemented with 0.3% BSA fatty acid free (GoldBio), and 0.03% ascorbic acid). […] Next, plates were incubated at 37° C. in a humidified incubator for 60 minutes or specified time point. Before reading, addition of coelenterazine 400a (5 uM final concentration; Nanolight Technology) was performed by the [sequence]. Immediately after, plates were read at 400 nm Rluc and fluorescent GFP2 emission at 510 nm for BRET2 at 0.8 second per well using a PheraStarFSX (BMB Lab Tech).\n(§6) The BRET ratios of 510/400 luminescence were calculated per well and were plotted as a function of drug concentration using Graphpad Prism 5 or 9 (Graphpad Software Inc., San Diego, CA). Data were normalized to % positive control stimulation and analyzed using nonlinear regression “log(agonist) vs. response” to yield Emax and EC50 parameter estimates."}, "5-HT2B [2]": {"target": "T1, 5-HT2B", "assay": "IP1 agonism (IP1 formation assay), Cerep, Eurofins", "assay_type": "cell-based", "parameters": "purchased Cerep, Eurofins (contract assay)", "conditions": "duplicate averages only", "description": "(§1) FIGS. 8A-B Comparison of 5-HT2A (a) and 5-HT2B (b) receptor in IP1 formation assay for selected compounds, performed at Cerep, Eurofins.\n(§2) IP1 agonism summary for selected compounds (duplicate averages only), performed at Cerep, Eurofins."}, "5-HT2A [3]": {"target": "T2, 5-HT2A (Homo sapiens, UniProt P28223)", "T2 sequence (P28223 whole entry)": "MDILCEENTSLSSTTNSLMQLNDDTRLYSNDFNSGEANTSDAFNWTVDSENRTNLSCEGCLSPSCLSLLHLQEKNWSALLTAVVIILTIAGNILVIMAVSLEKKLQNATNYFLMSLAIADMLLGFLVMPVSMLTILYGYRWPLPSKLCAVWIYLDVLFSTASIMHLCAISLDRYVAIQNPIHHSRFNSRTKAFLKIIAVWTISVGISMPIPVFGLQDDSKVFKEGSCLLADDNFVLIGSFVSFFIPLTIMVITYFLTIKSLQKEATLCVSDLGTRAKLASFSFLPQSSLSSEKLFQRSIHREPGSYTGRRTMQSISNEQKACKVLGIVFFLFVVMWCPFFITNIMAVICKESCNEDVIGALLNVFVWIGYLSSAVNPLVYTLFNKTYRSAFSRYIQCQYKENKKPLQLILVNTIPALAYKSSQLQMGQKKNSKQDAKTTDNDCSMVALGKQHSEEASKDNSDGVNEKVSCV", "assay": "IP1 agonism (IP1 formation assay), Cerep, Eurofins", "assay_type": "cell-based", "parameters": "purchased Cerep, Eurofins (contract assay)", "conditions": "duplicate averages only", "description": "as §1, §2"}, "[4]": {"assay": "Pharmacokinetic assessment, plasma and brain", "assay_type": "in vivo, male C57BL/6 mice", "conditions": "for Mean plasma Concentration (ng/mL): LLOQ 5.16 ng/mL; for Mean brain Concentration (ng/g): LLOQ 2.06 ng/mL for brain", "experimental": "PK assessments were performed at Sai Life (Telangana, India) according to the following general procedure. A total twenty-seven male C57BL/6 mice were used in this study with 3 mice per time point. Animals were administered subcutaneously at 10 mg/kg dose of test article. The formulation vehicle used was 0.9% normal saline. Blood samples (approximately 60 μL) were collected under light isoflurane anesthesia (Surgivet®) from retro orbital plexus from a set of three mice at 0.08, 0.25, 0.5, 1, 2, 4, 8, 24 and 48 hr. Immediately after blood collection, plasma was harvested by centrifugation at 4000 rpm, 10 min at […] and samples were stored at −70±10° C. until bioanalysis. Following blood collection, immediately animals were sacrificed followed by cutting abdominal vena-cava and whole body was perfused from heart using 10 mL of normal saline. Brain samples were collected from set of three mice at 0.08, 0.25, 0.5, 1, 2, 4, 8, 24 and 48 hr. After isolation, brain samples were rinsed three times in ice cold normal saline (for 5-10 seconds/rinse using ˜5-10 mL normal saline in disposable petri dish for each rinse) and dried on blotting paper. Brain samples were homogenized using ice-cold phosphate buffer saline (pH−7.4). Total homogenate volume was three times the tissue weight. All homogenates were stored below −70±10° C. until bioanalysis. All samples were processed for analysis by protein precipitation method and analyzed with fit-for-purpose LC-MS/MS method (LLOQ=5.16 ng/mL for plasma and 2.06 ng/mL for brain)."}, "C57BL/6J mice": {"system": "C57BL/6J mice", "assay": "Head twitch response (HTR) in mice", "assay_type": "in vivo, mouse", "conditions": "s.c.", "experimental": "All samples were prepared the same day testing was performed. Solids were weighed into small vials and dissolved in USP grade 0.85% saline with addition of 2 molar equivalents of glacial acetic acid. Sonication and gentle heating were applied until complete dissolution. The compounds were subsequently filtered through 0.45 μm filters into a new glass vial. All compounds were administered at a 1 mg/kg subcutaneous dose at a volume of 10 mL/kg of body weight. Volinanserin hydrochloride salt (MDL 100907) was purchased from Toronto Research Chemicals.\nAll experimental procedures involving animals were approved by an Institutional Animal Care and Use Committee (IACUC) and adhered to principles described in the National Institutes of Health Guide for the Care and Use of Laboratory Animals. The studies were conducted at AAALAC accredited facilities. Animals received regular veterinary care (weekly by institutional veterinarians) including daily health monitoring (by experimenters) of the animals (observing home cage behaviors, nesting, and body weight). All procedures were designed to minimize any stress/distress. Healthy adult male mice C57BL/6J (8-12 weeks, 26-33 g) were purchased from the Jackson Laboratory (Bar Harbor, ME) and housed 5 mice per cage with food and water available ad libitum. Mice were maintained on a 12-h light/dark cycle (lights on 7:00-19:00) and all testing was done in the light cycle. Temperature was kept constant at 22±2° C., and relative humidity was maintained at 50±5%\nThe head-twitch response evaluation was performed by a trained observer who was blinded to both drug and dose. Mice were moved to the testing room 30 min before the experiment to allow for acclimation. The body weight of each mouse was recorded. Mice were administered either a 1, 3, 10, or 30 mg/kg s.c. dose of compound solution (volume of injection 260-330 μL based on body weight). […] The total number of head-twitches over the 15 minute period were recorded. Five mice were used per dose.\nDOI was tested at the doses of 0.3, 1, 3, and 10 mg/kg (s.c., 5 mice per dose) and testing began immediately after administration of the compound. Ariadne was tested at the doses of 1, 3, 10, and 30 mg/kg (s.c., 5 mice per dose) and there was a 10 min interval between treatment and testing."}, "5-HT7a receptor": {"target": "5-HT7a receptor (Homo sapiens, UniProt P34969)", "sequence (P34969 1-445 isoform P34969-2)": "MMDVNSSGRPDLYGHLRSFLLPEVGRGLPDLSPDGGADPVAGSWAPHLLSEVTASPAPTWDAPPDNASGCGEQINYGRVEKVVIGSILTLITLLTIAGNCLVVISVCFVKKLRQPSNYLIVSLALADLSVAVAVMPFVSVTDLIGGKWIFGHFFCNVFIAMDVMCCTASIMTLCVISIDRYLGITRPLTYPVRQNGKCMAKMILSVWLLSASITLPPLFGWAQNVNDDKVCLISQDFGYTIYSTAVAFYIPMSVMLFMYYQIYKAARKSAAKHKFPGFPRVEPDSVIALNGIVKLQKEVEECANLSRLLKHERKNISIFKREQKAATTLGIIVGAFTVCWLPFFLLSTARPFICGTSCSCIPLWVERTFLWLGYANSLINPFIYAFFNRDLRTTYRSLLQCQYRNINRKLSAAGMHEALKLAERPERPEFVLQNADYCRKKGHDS", "assay": "5-HTome G protein activation BRET assay", "method": "as §3, §4, §5\nOn the day of the assay, plates were decanted and 20 uL of drug buffer per well (1×HBSS, 20 mM HEPES, pH 7.4) was added using a Multidrop (ThermoFisher Scientific), and plates were allowed to equilibrate at 37° C. in a humidified incubator before receiving drug stimulation. Drug dilutions of all compounds were performed in McCorvy buffer (1×HBSS, 20 mM HEPES, pH 7.4, supplemented with 0.3% BSA fatty acid free (GoldBio), and 0.03% ascorbic acid). […] Before reading, addition of coelenterazine 400a (5 uM final concentration; Nanolight Technology) was performed by the [sequence]. Immediately after, plates were read at 400 nm Rluc and fluorescent GFP2 emission at 510 nm for BRET2 at 0.8 second per well using a PheraStarFSX (BMB Lab Tech).\nas §6"}, "5-HT2A [5]": {"target": "T2, 5-HT2A", "assay": "G protein (Gq) dissociation BRET assay", "assay_type": "cell-based", "parameters": "host or cells: HEK293T (ATCC CRL-11268)"}, "[6]": {"conditions": "EC50, agonist activity, 5-HTome screen"}}, "note": "Read-outs that look alike come from different tables or passages of the source."}
{"smiles": "CCC(N)Cc1cc(OC)c(C)cc1OC", "note": "(racemic) [Compound 32, 1-(2,5-dimethoxy-4-methylphenyl)butan-2-amine]", "values": [{"measurement": "EC50", "setting": "5-HT2B [1]; [6]", "value": "< 1", "unit": "µM"}, {"measurement": "Emax", "setting": "5-HT2B [1]; read-out: Emax, agonist activity", "value": "> 70", "unit": "%"}, {"measurement": "EC50", "setting": "5-HT2B [2]; 5-HT2b (IP1 agonism), Table 2", "value": "> 3.2e-05", "unit": "M"}, {"measurement": "EC50", "setting": "5-HT2B [2]; EC50 (5-HT2B) (M), Table 7, IP1 agonism", "value": "1.7e-06", "unit": "M"}, {"measurement": "EC50", "setting": "5-HT2A [3]; 5-HT2a (IP1 agonism), Table 2", "value": "1.3e-06", "unit": "M"}, {"measurement": "EC50", "setting": "5-HT2A [3]; EC50 (5-HT2A) (M), Table 7, IP1 agonism", "value": "1.8e-06", "unit": "M"}, {"measurement": "Mean plasma Concentration (ng/mL)", "setting": "[4]; SC 10 mg/kg, 8 hr", "value": "BLQ"}, {"measurement": "Mean brain Concentration (ng/g)", "setting": "[4]; SC 10 mg/kg, 24 hr", "value": "BLQ"}, {"measurement": "Mean plasma Concentration (ng/mL)", "setting": "[4]; SC 10 mg/kg, 24 hr", "value": "BLQ"}, {"measurement": "Mean brain Concentration (ng/g)", "setting": "[4]; SC 10 mg/kg, 48 hr", "value": "BLQ"}, {"measurement": "Mean plasma Concentration (ng/mL)", "setting": "[4]; SC 10 mg/kg, 48 hr", "value": "BLQ"}, {"measurement": "Kp at 0.083 h", "setting": "[4]; male, C57BL/6, mouse, brain and plasma, SC 10 mg/kg, 0.083 hr, read-out: Brain/Plasma ratio", "value": 2.43}, {"measurement": "Kp at 0.25 h", "setting": "[4]; male, C57BL/6, mouse, brain and plasma, SC 10 mg/kg, 0.25 hr, read-out: Brain/Plasma ratio", "value": 5.93}, {"measurement": "Kp at 0.5 h", "setting": "[4]; male, C57BL/6, mouse, brain and plasma, SC 10 mg/kg, 0.5 hr, read-out: Brain/Plasma ratio", "value": 8.47}, {"measurement": "Kp at 1 h", "setting": "[4]; male, C57BL/6, mouse, brain and plasma, SC 10 mg/kg, 1 hr, read-out: Brain/Plasma ratio", "value": 10.2}, {"measurement": "Kp at 2 h", "setting": "[4]; male, C57BL/6, mouse, brain and plasma, SC 10 mg/kg, 2 hr, read-out: Brain/Plasma ratio", "value": 9.93}, {"measurement": "Kp at 4 h", "setting": "[4]; male, C57BL/6, mouse, brain and plasma, SC 10 mg/kg, 4 hr, read-out: Brain/Plasma ratio", "value": 9.01}, {"measurement": "concentration at 0.083 hr", "setting": "[4]; male, C57BL/6, mouse, brain, SC 10 mg/kg, 0.083 hr, read-out: Mean brain Concentration", "value": 1630, "unit": "ng/g"}, {"measurement": "concentration at 0.25 hr", "setting": "[4]; male, C57BL/6, mouse, brain, SC 10 mg/kg, 0.25 hr, read-out: Mean brain Concentration", "value": 4760, "unit": "ng/g"}, {"measurement": "concentration at 0.5 hr", "setting": "[4]; male, C57BL/6, mouse, brain, SC 10 mg/kg, 0.5 hr, read-out: Mean brain Concentration", "value": 5610, "unit": "ng/g"}, {"measurement": "concentration at 1 hr", "setting": "[4]; male, C57BL/6, mouse, brain, SC 10 mg/kg, 1 hr, read-out: Mean brain Concentration", "value": 5240, "unit": "ng/g"}, {"measurement": "concentration at 2 hr", "setting": "[4]; male, C57BL/6, mouse, brain, SC 10 mg/kg, 2 hr, read-out: Mean brain Concentration", "value": 1710, "unit": "ng/g"}, {"measurement": "concentration at 4 hr", "setting": "[4]; male, C57BL/6, mouse, brain, SC 10 mg/kg, 4 hr, read-out: Mean brain Concentration", "value": 368, "unit": "ng/g"}, {"measurement": "concentration at 8 hr", "setting": "[4]; male, C57BL/6, mouse, brain, SC 10 mg/kg, 8 hr, read-out: Mean brain Concentration", "value": 16.2, "unit": "ng/g"}, {"measurement": "concentration at 0.083 hr", "setting": "[4]; male, C57BL/6, mouse, plasma, SC 10 mg/kg, 0.083 hr, read-out: Mean plasma Concentration", "value": 672, "unit": "ng/mL"}, {"measurement": "concentration at 0.25 hr", "setting": "[4]; male, C57BL/6, mouse, plasma, SC 10 mg/kg, 0.25 hr, read-out: Mean plasma Concentration", "value": 802, "unit": "ng/mL"}, {"measurement": "concentration at 0.5 hr", "setting": "[4]; male, C57BL/6, mouse, plasma, SC 10 mg/kg, 0.5 hr, read-out: Mean plasma Concentration", "value": 662, "unit": "ng/mL"}, {"measurement": "concentration at 1 hr", "setting": "[4]; male, C57BL/6, mouse, plasma, SC 10 mg/kg, 1 hr, read-out: Mean plasma Concentration", "value": 512, "unit": "ng/mL"}, {"measurement": "concentration at 2 hr", "setting": "[4]; male, C57BL/6, mouse, plasma, SC 10 mg/kg, 2 hr, read-out: Mean plasma Concentration", "value": 172, "unit": "ng/mL"}, {"measurement": "concentration at 4 hr", "setting": "[4]; male, C57BL/6, mouse, plasma, SC 10 mg/kg, 4 hr, read-out: Mean plasma Concentration", "value": 40.9, "unit": "ng/mL"}, {"measurement": "Cmax", "setting": "[4]; male, C57BL/6, mouse, SC 10 mg/kg, brain, read-out: Cmax (ng/g), brain", "value": 5610, "unit": "ng/g"}, {"measurement": "half-life", "setting": "[4]; male, C57BL/6, mouse, SC 10 mg/kg, brain, read-out: T1/2 (hr), brain (converted)", "value": 0.89, "unit": "h"}, {"measurement": "Tmax", "setting": "[4]; male, C57BL/6, mouse, SC 10 mg/kg, brain, read-out: Tmax (hr), brain", "value": 0.5, "unit": "h"}, {"measurement": "AUC(0-t)", "setting": "[4]; male, C57BL/6, mouse, SC 10 mg/kg, plasma, read-out: AUClast (hr*ng/mL), plasma", "value": 1180, "unit": "ng·h/mL"}, {"measurement": "Cmax", "setting": "[4]; male, C57BL/6, mouse, SC 10 mg/kg, plasma, read-out: Cmax (ng/mL), plasma", "value": 802, "unit": "ng/mL"}, {"measurement": "half-life", "setting": "[4]; male, C57BL/6, mouse, SC 10 mg/kg, plasma, read-out: T1/2 (hr), plasma (converted)", "value": 0.84, "unit": "h"}, {"measurement": "Tmax", "setting": "[4]; male, C57BL/6, mouse, SC 10 mg/kg, plasma, read-out: Tmax (hr), plasma", "value": 0.25, "unit": "h"}, {"measurement": "brain penetration", "setting": "[4]; mouse, in vivo", "value": "high brain penetration"}, {"measurement": "decrease in HTR count per 15 min compared to racemic DOPR", "setting": "C57BL/6J mice", "value": "> 3", "unit": "fold"}, {"measurement": "dose of maximum (peak) HTR", "setting": "C57BL/6J mice", "value": 10, "unit": "mg/kg"}, {"measurement": "EC50", "setting": "5-HT7a receptor", "value": "> 10", "unit": "µM"}, {"measurement": "agonist activity", "setting": "5-HT7a receptor; 5-HTome screen", "value": "Little to no agonist activity"}, {"measurement": "Emax", "setting": "5-HT2A [5]; 5-HTome screen, read-out: Emax, agonist activity", "value": "> 70", "unit": "%"}, {"measurement": "EC50", "setting": "5-HT2A [5]; EC50 (EC50/Gq), Gq dissociation, Gq dissociation BRET", "value": 0.185, "unit": "µM"}, {"measurement": "EC50", "setting": "5-HT2A [5]; [6]", "value": "< 1", "unit": "µM"}, {"measurement": "signaling potency and efficacy in comparison to DOM", "setting": "5-HT2A [5]; Gq, G11 and β-arrestin2 pathways coupled to 5-HT2A", "value": "lower signaling potency and efficacy"}]}
